Results on 14 compounds are retold here after patent publication US4075339A, “Biologically active compounds” (University of Illinois Foundation, priority 1976, dated 1978).

Molecules are shown by their SMILES. In brackets after ≈: the same amount, converted by molar mass.

The target of assay [1] is E. coli RNA Polymerase (Escherichia coli, UniProt P0A8V2). As to the kind of experiment: E. coli RNA Polymerase Inhibition. The note with it: 0.25 h; for remaining activity at 500 µM: 0.5 μM/ml of compound, room temperature, 15 minutes, control = 100; for inhibition at 500 µM: at a concentration of 0.5 μmole/ml (Table 4). Format: biochemical. The protocol: The assay mixtures contained, in a total volume of 0.25 ml: (Tris)HCl
Sequence of E. coli RNA Polymerase (P0A8V2 whole entry): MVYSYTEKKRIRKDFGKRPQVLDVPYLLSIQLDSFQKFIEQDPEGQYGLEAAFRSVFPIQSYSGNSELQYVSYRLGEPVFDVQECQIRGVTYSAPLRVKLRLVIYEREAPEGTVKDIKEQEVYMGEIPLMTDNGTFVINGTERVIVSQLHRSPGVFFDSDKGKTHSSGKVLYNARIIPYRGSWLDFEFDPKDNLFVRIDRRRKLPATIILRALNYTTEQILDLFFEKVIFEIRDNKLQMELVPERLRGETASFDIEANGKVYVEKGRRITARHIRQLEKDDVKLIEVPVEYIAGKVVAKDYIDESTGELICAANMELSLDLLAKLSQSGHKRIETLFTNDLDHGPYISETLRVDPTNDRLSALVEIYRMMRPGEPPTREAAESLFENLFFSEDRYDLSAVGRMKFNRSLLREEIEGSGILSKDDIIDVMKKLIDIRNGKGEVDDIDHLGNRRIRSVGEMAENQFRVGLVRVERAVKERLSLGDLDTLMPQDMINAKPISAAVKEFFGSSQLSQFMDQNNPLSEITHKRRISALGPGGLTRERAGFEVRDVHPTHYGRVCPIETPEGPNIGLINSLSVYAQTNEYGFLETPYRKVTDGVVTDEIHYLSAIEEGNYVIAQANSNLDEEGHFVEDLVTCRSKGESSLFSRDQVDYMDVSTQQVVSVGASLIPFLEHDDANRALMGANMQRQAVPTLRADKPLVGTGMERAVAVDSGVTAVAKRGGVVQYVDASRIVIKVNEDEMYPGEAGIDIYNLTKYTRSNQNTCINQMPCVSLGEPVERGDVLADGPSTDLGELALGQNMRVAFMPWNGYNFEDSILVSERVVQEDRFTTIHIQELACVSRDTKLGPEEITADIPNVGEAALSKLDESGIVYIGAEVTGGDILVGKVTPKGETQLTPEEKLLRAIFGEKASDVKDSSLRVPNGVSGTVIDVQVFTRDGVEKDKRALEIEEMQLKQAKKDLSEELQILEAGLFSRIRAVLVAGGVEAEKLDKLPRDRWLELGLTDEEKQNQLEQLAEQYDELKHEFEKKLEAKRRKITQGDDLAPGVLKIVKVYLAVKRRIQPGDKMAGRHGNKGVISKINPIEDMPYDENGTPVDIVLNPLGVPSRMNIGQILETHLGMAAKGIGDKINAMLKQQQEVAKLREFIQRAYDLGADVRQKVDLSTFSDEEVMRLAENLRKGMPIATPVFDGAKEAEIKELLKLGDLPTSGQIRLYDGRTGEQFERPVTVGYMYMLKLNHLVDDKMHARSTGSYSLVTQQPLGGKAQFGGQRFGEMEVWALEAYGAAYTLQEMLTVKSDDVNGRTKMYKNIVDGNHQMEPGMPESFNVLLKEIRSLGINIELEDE
Sequence of E. coli RNA Polymerase (P0A8T7 whole entry partner): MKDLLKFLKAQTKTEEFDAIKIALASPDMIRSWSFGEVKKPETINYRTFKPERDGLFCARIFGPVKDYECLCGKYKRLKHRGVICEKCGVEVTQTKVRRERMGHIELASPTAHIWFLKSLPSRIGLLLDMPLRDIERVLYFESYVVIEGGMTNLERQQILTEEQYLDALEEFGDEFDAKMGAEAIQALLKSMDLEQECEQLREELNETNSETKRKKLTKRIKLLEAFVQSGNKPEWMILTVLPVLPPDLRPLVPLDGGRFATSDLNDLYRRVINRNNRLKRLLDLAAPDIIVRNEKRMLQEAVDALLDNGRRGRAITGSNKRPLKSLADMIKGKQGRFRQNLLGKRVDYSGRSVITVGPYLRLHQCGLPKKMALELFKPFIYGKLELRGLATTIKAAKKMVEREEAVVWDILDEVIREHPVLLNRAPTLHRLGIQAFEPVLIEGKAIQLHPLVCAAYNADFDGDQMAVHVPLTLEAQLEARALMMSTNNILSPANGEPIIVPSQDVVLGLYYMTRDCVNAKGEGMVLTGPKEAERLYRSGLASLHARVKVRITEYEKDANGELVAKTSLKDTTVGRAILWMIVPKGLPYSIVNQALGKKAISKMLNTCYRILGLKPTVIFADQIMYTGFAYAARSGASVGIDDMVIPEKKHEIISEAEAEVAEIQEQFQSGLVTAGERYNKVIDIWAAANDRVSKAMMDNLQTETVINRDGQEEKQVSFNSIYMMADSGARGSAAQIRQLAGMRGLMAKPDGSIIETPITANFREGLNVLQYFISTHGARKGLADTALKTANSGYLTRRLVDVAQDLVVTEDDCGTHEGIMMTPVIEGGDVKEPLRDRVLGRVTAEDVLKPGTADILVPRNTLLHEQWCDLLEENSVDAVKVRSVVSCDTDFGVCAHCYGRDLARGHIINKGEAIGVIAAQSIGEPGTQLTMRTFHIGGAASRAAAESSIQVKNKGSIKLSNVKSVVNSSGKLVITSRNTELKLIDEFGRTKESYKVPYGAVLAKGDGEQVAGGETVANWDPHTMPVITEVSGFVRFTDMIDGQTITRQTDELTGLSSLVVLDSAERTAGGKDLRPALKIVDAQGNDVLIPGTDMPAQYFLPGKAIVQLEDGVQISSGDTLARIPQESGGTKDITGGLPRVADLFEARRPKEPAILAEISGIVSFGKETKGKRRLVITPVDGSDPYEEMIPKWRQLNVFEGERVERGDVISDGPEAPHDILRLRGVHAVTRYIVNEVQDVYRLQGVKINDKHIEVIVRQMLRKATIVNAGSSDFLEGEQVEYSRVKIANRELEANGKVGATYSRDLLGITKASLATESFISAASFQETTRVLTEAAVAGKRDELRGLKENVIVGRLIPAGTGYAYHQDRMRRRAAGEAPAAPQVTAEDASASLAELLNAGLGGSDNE
Sequence of E. coli RNA Polymerase (P0A7Z4 whole entry partner): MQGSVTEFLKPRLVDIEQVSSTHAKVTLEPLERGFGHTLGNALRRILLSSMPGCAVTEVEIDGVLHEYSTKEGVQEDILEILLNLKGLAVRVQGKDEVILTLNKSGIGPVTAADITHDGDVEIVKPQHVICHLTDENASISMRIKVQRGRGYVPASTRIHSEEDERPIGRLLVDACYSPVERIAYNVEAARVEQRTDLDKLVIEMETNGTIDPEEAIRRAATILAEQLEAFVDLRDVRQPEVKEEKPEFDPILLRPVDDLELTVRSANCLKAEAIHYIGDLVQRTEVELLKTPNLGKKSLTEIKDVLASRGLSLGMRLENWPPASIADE
Sequence of E. coli RNA Polymerase (P0A800 whole entry partner): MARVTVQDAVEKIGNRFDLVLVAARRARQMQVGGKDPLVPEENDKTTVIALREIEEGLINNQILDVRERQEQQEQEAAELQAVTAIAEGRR
buffer, pH 7.9, 5 μmoles; MgCl2, 1 μmole; mercaptoethanol, 3
μmoles; MpCl2, 0.25 μmole: GTP, UTP, and CTP, 0.1 μmole
polymerase, 0.5 units; and […] of compound. Reactions were run a
room temperature for 15 minutes.
(§1) Table 4, below, relates to the activity of compounds of Examples VIII through XVIII as bacterial RNA polymerase inhibitors and as inhibitors of reverse transcriptase when tested in the manner the compounds of Examples I through V as related, supra, in Tables 2 and 3.
*At a concentration of 0.5 μmole/ml.

Assay [2] relates to Reverse Transcriptase of Rauscher Leukemia Virus. Description: Inhibition of Reverse Transcriptase of Rauscher Leukemia Virus. Format: biochemical. Further details: Reverse Transcriptase of Rauscher Leukemia Virus % Inhibition: concentration or dose not given beside the values. The following applies: for Reverse Transcriptase of Rauscher Leukemia Virus % Inhibition: 37° C. for 90 minutes (Table 3); for Reverse transcriptase activity, cpm: 37° C. for 90 minutes, control 5396 cpm; for RLV Reverse Transcriptase % Inhibition: at a concentration of 0.25 μmole/ml (Table 4), 90 min. The protocol: *(The reverse transcriptase activity was measured at 37° C. for 90
as §1
**At a concentration of 0.25 μmole/ml.

Assay [3] deals with P. vulgaris. As to the kind of experiment: Bacterial inhibition, MIC in brain heart infusion broth. Type of assay: cell-based. The following applies: Proteus vulgaris, read-out: MIC (minimal inhibitory concentration). From the text:
(§2) ^a Minimal inhibitory concentration in brain heart infusion broth.

Assay [4] deals with E. coli. Described as above. The note with it: Escherichia coli, read-out: MIC (minimal inhibitory concentration). Type of assay: cell-based.
Source text: as §2

The subject of assay [5] is St. Faecalis. The description is as above. Type of assay: cell-based. The following applies: Enterococcus faecalis, read-out: MIC (minimal inhibitory concentration).
Source text: as §2

Assay [6] has as its system K. pneumoniae. Described as above. Format: cell-based. The note with it: Klebsiella pneumoniae, read-out: MIC (minimal inhibitory concentration).
Source text: as §2

Assay [7] concerns S. Hemolyticus. The description is as above. Format: cell-based. The note with it: read-out: MIC (minimal inhibitory concentration).
Source text: as §2

Assay [8] concerns Ps. aeruginosa. The description is as above. Type of assay: cell-based. The note with it: Pseudomonas aeruginosa, read-out: MIC (minimal inhibitory concentration).
Source text: as §2

Assay [9] relates to D. penumoniae. Described as above. Type of assay: cell-based. The note with it: read-out: MIC (minimal inhibitory concentration).
Source text: as §2

For assay [10], the system named is S. aureus. Described as above. The following applies: Staphylococcus aureus, read-out: MIC (minimal inhibitory concentration). Type of assay: cell-based.
Source text: as §2

As usually defined, the remaining activity is the signal under treatment as a percentage of the control signal. What is called inhibition is the drop in the measured response relative to a control, in per cent.

With `COC1=C2CC(C)CC(OC)C(O)C(C)/C=C(\C)C(OC(N)=O)C(OC)/C=C\C=C(/C)C(=O)NC(=C(C=NC(C)(C)C)C1=O)C2=O` (stereo not shown) [Example I], in assay [1], the remaining activity at 500 µM is 99%. Besides, in assay [2], the “Reverse Transcriptase of Rauscher Leukemia Virus % Inhibition” value amounted to 93.0%. Moreover, the “Reverse transcriptase activity, cpm” value in assay [2] is given as 376 cpm. Also, the MIC is 500 µg/mL (≈ 777 µM) in [3]; 500 µg/mL (≈ 777 µM) in assay [4]; above 500 µg/mL in assay [5]; 500 µg/mL (≈ 777 µM) in assay [6]; 250 µg/mL (≈ 388 µM) in assay [7]; 250 µg/mL (≈ 388 µM) in assay [8]. Moreover, the values for the MIC in [9] and in [10] were 250 µg/mL (≈ 388 µM) and 500 µg/mL (≈ 777 µM), respectively.
Take `COC1=C2CC(C)CC(OC)C(O)C(C)/C=C(\C)C(OC(N)=O)C(OC)/C=C\C=C(/C)C(=O)NC(=C(C=NOC(c3ccccc3)c3ccccc3)C1=O)C2=O` (stereo not shown) [III]: the remaining activity at 500 µM in [1] is 84%. Moreover, in [2], the “Reverse Transcriptase of Rauscher Leukemia Virus % Inhibition” value is given as 98.6%. Also, in [2], the “Reverse transcriptase activity, cpm” value was determined as 75 cpm. Also, the MIC in [3] is above 500 µg/mL; in [4] it was above 500 µg/mL; in assay [5], above 500 µg/mL; in assay [6], above 500 µg/mL; in [7], 31.2 µg/mL (≈ 40.5 µM); in [8], above 500 µg/mL. For the same compound, the MIC in [9] was 62.5 µg/mL (≈ 81.2 µM); in [10] it was above 500 µg/mL.
As for `COC1=C2CC(C)CC(OC)C(O)C(C)/C=C(\C)C(OC(N)=O)C(OC)/C=C\C=C(/C)C(=O)NC(=C(C=NN3CCN(C)CC3)C1=O)C2=O` (stereo not shown) [II], in assay [1], the remaining activity at 500 µM worked out at 106%. Moreover, the “Reverse Transcriptase of Rauscher Leukemia Virus % Inhibition” value in [2] is listed as 93.4%. Besides, the “Reverse transcriptase activity, cpm” value in [2] is reported as 357 cpm. Further, the MIC in assay [3] was 500 µg/mL (≈ 729 µM); in assay [4], 500 µg/mL (≈ 729 µM); in assay [5], above 500 µg/mL; in assay [6], 500 µg/mL (≈ 729 µM); in assay [7], 500 µg/mL (≈ 729 µM); in [8], 250 µg/mL (≈ 365 µM). Besides, the MIC in assay [9] was 500 µg/mL (≈ 729 µM); in [10] it was above 500 µg/mL.
In the case of `CCCCCCCCON=CC1=C2NC(=O)/C(C)=C/C=C\C(OC)C(OC(N)=O)/C(C)=C/C(C)C(O)C(OC)CC(C)CC(=C(OC)C1=O)C2=O` (stereo not shown) [IV], the remaining activity at 500 µM in [1] amounted to 110%. The “Reverse Transcriptase of Rauscher Leukemia Virus % Inhibition” value in assay [2] turned out to be 94.4%. Further, in assay [2], the “Reverse transcriptase activity, cpm” value is given as 303 cpm. The MIC in [3] was above 500 µg/mL; in assay [4], above 500 µg/mL; in assay [5], above 500 µg/mL; in assay [6], above 500 µg/mL; in assay [7], 7.8 µg/mL (≈ 10.9 µM); in [8], above 500 µg/mL. In addition, the values for the MIC in [9] and in assay [10] were 7.8 µg/mL (≈ 10.9 µM) and above 500 µg/mL, respectively.
With `COC1/C=C\C=C(/C)C(=O)Nc2cc3nc4ccccc4nc3c(c2O)CC(C)CC(OC)C(O)C(C)/C=C(\C)C1OC(N)=O` (stereo not shown) [VIII, demethoxygeldanazine], in assay [1], the inhibition at 500 µM fell in the range of 5 to 16%. In [2], the “RLV Reverse Transcriptase % Inhibition” value amounted to 98%.
Regarding `COC1=C2CC(C)CC(OC)C(O)C(C)/C=C(\C)C(OC(N)=O)C(OC)/C=C\C=C(/C)C(=O)NC(=C(C=NN3CCN(Cc4ccccc4)CC3)C1=O)C2=O` (stereo not shown) [V], in assay [1], the remaining activity at 500 µM came out at 88%. Further, the “Reverse Transcriptase of Rauscher Leukemia Virus % Inhibition” value in assay [2] worked out at 97.1%. In assay [2], the “Reverse transcriptase activity, cpm” value is given as 154 cpm. For the same compound, the MIC amounted to 500 µg/mL (≈ 656 µM) in assay [3]; 500 µg/mL (≈ 656 µM) in [4]; 500 µg/mL (≈ 656 µM) in assay [5]; 500 µg/mL (≈ 656 µM) in assay [6]; 125 µg/mL (≈ 164 µM) in [7]; 250 µg/mL (≈ 328 µM) in assay [8]. Also, the MIC was 62.5 µg/mL (≈ 82 µM) in assay [9] and 500 µg/mL (≈ 656 µM) in assay [10].
For `COC1/C=C\C=C(/C)C(=O)Nc2cc3nc4ccc(C)cc4oc-3c(c2=O)CC(C)CC(OC)C(O)C(C)/C=C(\C)C1OC(N)=O` (stereo not shown) [XIII], in [1], the inhibition at 500 µM amounted to 21%. The “RLV Reverse Transcriptase % Inhibition” value in assay [2] is reported as 77%.
For the compound `COC1/C=C\C=C(/C)C(=O)Nc2cc3nc4cc(C)ccc4oc-3c(c2=O)CC(C)CC(OC)C(O)C(C)/C=C(\C)C1OC(N)=O` (stereo not shown) [XII], 500 µM produced 9% inhibition in assay [1]. Moreover, the “RLV Reverse Transcriptase % Inhibition” value in assay [2] amounted to 89%.
On the same counts, the results for `COC1/C=C\C=C(/C)C(=O)Nc2cc3nc4cccc(C)c4oc-3c(c2=O)CC(C)CC(OC)C(O)C(C)/C=C(\C)C1OC(N)=O` (stereo not shown) [XIV] are 6% and 72%.
The like results for `COC1/C=C\C=C(/C)C(=O)Nc2cc3nc4ccccc4oc-3c(c2=O)CC(C)CC(OC)C(O)C(C)/C=C(\C)C1OC(N)=O` (stereo not shown) [XI] were, in that order, 61 to 67% and 98%.
`COC(=O)[C@@H](NC(=O)c1ccc(C)c2oc3c4c(=O)c(cc-3nc12)NC(=O)/C(C)=C/C=C\C(OC)C(OC(N)=O)/C(C)=C/C(C)C(O)C(OC)CC(C)C4)[C@@H](C)O` (stereo partly shown) [XVIII]: the “RLV Reverse Transcriptase % Inhibition” value in assay [2] was found to be 0%.
Consider `COC(=O)c1cccc2oc3c4c(=O)c(cc-3nc12)NC(=O)/C(C)=C/C=C\C(OC)C(OC(N)=O)/C(C)=C/C(C)C(O)C(OC)CC(C)C4` (stereo not shown) [XVII], for which the “RLV Reverse Transcriptase % Inhibition” value in [2] is 0%.
On the same count and under the same terms, the figure for `COC1/C=C\C=C(/C)C(=O)Nc2cc3nc4cc(Cl)ccc4oc-3c(c2=O)CC(C)CC(OC)C(O)C(C)/C=C(\C)C1OC(N)=O` (stereo not shown) [XVI] is 60%.
Turning to `COC1/C=C\C=C(/C)C(=O)Nc2cc3nc4cc(Br)ccc4oc-3c(c2=O)CC(C)CC(OC)C(O)C(C)/C=C(\C)C1OC(N)=O` (stereo not shown) [XV], the inhibition at 500 µM in [1] was found to be 60%. Moreover, the “RLV Reverse Transcriptase % Inhibition” value in assay [2] is reported as 82 - 100%.
